# Assay results published in US6737383B1, “Herbicidal oxadiazolidines” (priority 1999, dated 2004).
# Tests used:
# rice = assay: Test B flood test rice; assay type: in vivo, Oryza sativa
# Method in brief: (§1)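 Read-out is a visual response score from 0 (no effect) to 10 (complete control), assigned by comparison with untreated controls. Treatment was applied at the 2-leaf stage, and plants stayed in the greenhouse for twelve to sixteen days before scoring.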
# blackgrass = assay: Test B pre/postemergence blackgrass; assay type: in vivo, Alopecurus myosuroides
# Method in brief: (§2)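 Herbicidal effect was estimated by eye on a ten-point control scale after plants spent twelve to sixteen days in a greenhouse following soil or foliar treatment. Foliar sprays targeted plants at one to four leaves; all doses were formulated in a non-phytotoxic solvent with surfactant.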
# smallflower flatsedge = assay: Test B flood test smallflower flatsedge; assay type: in vivo, Cyperus difformis
# Method in brief: as §1
# wheat = assay: Test B pre/postemergence wheat; assay type: in vivo, Triticum aestivum
# Method in brief: as §2
# bedstraw = assay: Test B pre/postemergence bedstraw; assay type: in vivo, Galium aparine
# Method in brief: as §2
# rape = assay: Test B pre/postemergence rape; assay type: in vivo, Brassica napus
# Method in brief: as §2
# wild oat = assay: Test B pre/postemergence wild oat; assay type: in vivo, Avena fatua
# Method in brief: as §2
# bamyardgrass = assay: Test B flood test barnyardgrass; assay type: in vivo, Echinochloa crus-galli
# Method in brief: as §1
# giant foxtail = assay: Test B pre/postemergence giant foxtail; assay type: in vivo, Setaria faberii
# Method in brief: as §2
# crabgrass = assay: Test B pre/postemergence crabgrass; assay type: in vivo, Digitaria sanguinalis
# Method in brief: as §2
# corn = assay: Test B pre/postemergence corn; assay type: in vivo, Zea mays
# Method in brief: as §2
# sugar beet = assay: Test B pre/postemergence sugar beet; assay type: in vivo, Beta vulgaris
# Method in brief: as §2
# surinam grass = assay: Test B pre/postemergence surinam grass; assay type: in vivo, Brachiaria decumbens
# Method in brief: as §2
# purple nutsedge = assay: Test B pre/postemergence purple nutsedge; assay type: in vivo, Cyperus rotundus
# Method in brief: as §2
# velvetleaf = assay: Test B pre/postemergence velvetleaf; assay type: in vivo, Abutilon theophrasti
# Method in brief: as §2
# duck salad = assay: Test B flood test duck salad; assay type: in vivo, Heteranthera limosa
# Method in brief: as §1
# [1] = Postemergence (flood test species), Rate 125 g/ha, scale of 0 to 10 where 0 is no effect and 10 is complete control
# [2] = Rate 62 g/ha, Postemergence section, flood test species, scale of 0 to 10 where 0 is no effect and 10 is complete control
# [3] = Rate 250 g/ha, Postemergence (flood test), scale 0 to 10, 0 is no effect, 10 is complete control
# [4] = Rate 500 g/ha, listed under Postemergence (flood test species), scale 0 to 10
# [5] = Postemergence, Rate 125 g/ha, scale of 0 to 10 where 0 is no effect and 10 is complete control
# [6] = Postemergence, Rate 1000 g/ha, scale 0 to 10 (0 no effect, 10 complete control)
# [7] = Preemergence, Rate 62 g/ha, scale 0 to 10 (0 no effect, 10 complete control)
# [8] = Preemergence, Rate 125 g/ha, 0 is no effect, 10 is complete control
# [9] = Preemergence, Rate 250 g/ha, scale 0 to 10, 0 is no effect, 10 is complete control
# [10] = Preemergence, Rate 500 g/ha, scale 0 to 10 (0 no effect, 10 complete control)
# [11] = Rate 62 g/ha, Postemergence, scale of 0 to 10 where 0 is no effect and 10 is complete control
# [12] = Rate 250 g/ha, Postemergence, scale 0 to 10, 0 is no effect, 10 is complete control
# [13] = Rate 500 g/ha, Postemergence, scale 0 to 10
# [14] = Rate 1000 g/ha, Preemergence, scale 0 to 10 (0 no effect, 10 complete control)
# [15] = Postemergence, Rate 62 g/ha, scale 0 to 10, 0 is no effect, 10 is complete control
smiles,measurement,setting,value
C=CCn1c(=O)on(C(=O)N(c2ccc(F)cc2F)C2CC2)c1=O [Compound 127],Rice plant response rating,rice; [1],0
same,Rice plant response rating,rice; [2],0
same,"Plant response rating, Rice",rice; [3],0
same,Rice plant response rating,rice; [4],0
same,Blackgrass plant response rating,blackgrass; [5],0
same,Blackgrass plant response rating,blackgrass; [6],0
same,Blackgrass plant response rating,blackgrass; [7],0
same,Blackgrass plant response rating (0 to 10 scale),blackgrass; [8],0
same,Blackgrass plant response rating,blackgrass; [9],0
same,Blackgrass plant response rating,blackgrass; [10],0
same,Blackgrass plant response rating,blackgrass; [11],0
same,"Plant response rating, Blackgrass",blackgrass; [12],0
same,Blackgrass plant response rating,blackgrass; [13],0
same,"Plant response rating, Blackgrass",blackgrass; [14],0
same,S. Flatsedge plant response rating,smallflower flatsedge; [1],0
same,S. Flatsedge plant response rating,smallflower flatsedge; [2],0
same,"Plant response rating, S. Flatsedge",smallflower flatsedge; [3],0
same,S. Flatsedge plant response rating,smallflower flatsedge; [4],0
same,Wheat plant response rating,wheat; [5],0
same,Wheat plant response rating,wheat; [6],0
same,Wheat plant response rating,wheat; [7],0
same,Wheat plant response rating (0 to 10 scale),wheat; [8],0
same,Wheat plant response rating,wheat; [9],0
same,Wheat plant response rating,wheat; [10],0
same,Wheat plant response rating,wheat; [11],0
same,"Plant response rating, Wheat",wheat; [12],0
same,Wheat plant response rating,wheat; [13],0
same,"Plant response rating, Wheat",wheat; [14],2
same,Bedstraw plant response rating,bedstraw; [15],0
same,Bedstraw plant response rating,bedstraw; [5],0
same,Bedstraw plant response rating,bedstraw; [6],0
same,Bedstraw plant response rating,bedstraw; [7],0
same,Bedstraw plant response rating (0 to 10 scale),bedstraw; [8],0
same,Bedstraw plant response rating,bedstraw; [9],0
same,Bedstraw plant response rating,bedstraw; [10],0
same,"Plant response rating, Bedstraw",bedstraw; [12],0
same,Bedstraw plant response rating,"bedstraw; Rate 500 g/ha, Postemergence, scale 0 to 10, 0 no effect, 10 complete control",0
same,"Plant response rating, Bedstraw",bedstraw; [14],0
same,Rape plant response rating,rape; [5],0
same,Rape plant response rating,rape; [6],0
same,Rape plant response rating,rape; [7],0
same,Rape plant response rating (0 to 10 scale),rape; [8],0
same,Rape plant response rating,rape; [9],0
same,Rape plant response rating,rape; [10],0
same,Rape plant response rating,rape; [11],0
same,"Plant response rating, Rape",rape; [12],0
same,Rape plant response rating,rape; [13],0
same,"Plant response rating, Rape",rape; [14],0
same,Wild oats plant response rating,wild oat; [5],0
same,Wild oats plant response rating,wild oat; [6],0
same,Wild oats plant response rating,wild oat; [7],0
same,Wild oats plant response rating (0 to 10 scale),wild oat; [8],0
same,Wild oats plant response rating,wild oat; [9],0
same,Wild oats plant response rating,wild oat; [10],0
same,Wild oats plant response rating,wild oat; [11],0
same,"Plant response rating, Wild oats",wild oat; [12],0
same,Wild oats plant response rating,wild oat; [13],0
same,"Plant response rating, Wild oats",wild oat; [14],8
same,Barnyardgrass plant response rating,bamyardgrass; [1],0
same,Barnyardgrass plant response rating,bamyardgrass; [15],0
same,"Plant response rating, Barnyardgrass",bamyardgrass; [3],0
same,Barnyardgrass plant response rating,"bamyardgrass; Rate 500 g/ha, listed under Postemergence (flood test species), scale 0 to 10, 0 no effect, 10 complete control",0
same,Giant foxtail plant response rating,giant foxtail; [5],0
same,Giant foxtail plant response rating,giant foxtail; [6],0
same,Giant foxtail plant response rating,giant foxtail; [7],0
same,Giant foxtail plant response rating (0 to 10 scale),giant foxtail; [8],0
same,Giant foxtail plant response rating,giant foxtail; [9],2
same,Giant foxtail plant response rating,giant foxtail; [10],4
same,Giant foxtail plant response rating,giant foxtail; [11],0
same,"Plant response rating, Giant foxtail",giant foxtail; [12],0
same,Giant foxtail plant response rating,giant foxtail; [13],0
same,"Plant response rating, Giant foxtail",giant foxtail; [14],9
same,Crabgrass plant response rating,crabgrass; [5],0
same,Crabgrass plant response rating,crabgrass; [6],0
same,Crabgrass plant response rating,crabgrass; [7],0
same,Crabgrass plant response rating (0 to 10 scale),crabgrass; [8],0
same,Crabgrass plant response rating,crabgrass; [9],0
same,Crabgrass plant response rating,crabgrass; [10],0
same,Crabgrass plant response rating,crabgrass; [11],0
same,"Plant response rating, Crabgrass",crabgrass; [12],0
same,Crabgrass plant response rating,crabgrass; [13],0
same,"Plant response rating, Crabgrass",crabgrass; [14],7
same,Corn plant response rating,corn; [5],0
same,Corn plant response rating,corn; [6],0
same,Corn plant response rating,corn; [7],0
same,Corn plant response rating (0 to 10 scale),corn; [8],0
same,Corn plant response rating,corn; [9],0
same,Corn plant response rating,corn; [10],0
same,Corn plant response rating,corn; [11],0
same,"Plant response rating, Corn",corn; [12],0
same,Corn plant response rating,corn; [13],0
same,"Plant response rating, Corn",corn; [14],0
same,Sugarbeets plant response rating,sugar beet; [5],0
same,Sugarbeets plant response rating,sugar beet; [6],0
same,Sugarbeets plant response rating,sugar beet; [7],0
same,Sugarbeets plant response rating (0 to 10 scale),sugar beet; [8],0
same,Sugarbeets plant response rating,sugar beet; [9],0
same,Sugarbeets plant response rating,sugar beet; [10],0
same,Sugarbeets plant response rating,sugar beet; [11],0
same,"Plant response rating, Sugarbeets",sugar beet; [12],0
same,Sugarbeets plant response rating,sugar beet; [13],0
same,"Plant response rating, Sugarbeets",sugar beet; [14],0
same,B. signalgrass plant response rating,surinam grass; [15],0
same,B. signalgrass plant response rating,surinam grass; [5],0
same,B. signalgrass plant response rating,surinam grass; [6],0
same,B. signalgrass plant response rating,surinam grass; [7],0
same,B. signalgrass plant response rating (0 to 10 scale),surinam grass; [8],0
same,B. signalgrass plant response rating,surinam grass; [9],0
same,B. signalgrass plant response rating,surinam grass; [10],0
same,"Plant response rating, B. signalgrass",surinam grass; [12],0
same,B. signalgrass plant response rating,"surinam grass; Rate 500 g/ha, Postemergence, scale of 0 to 10 where 0 is no effect and 10 is complete control",0
same,"Plant response rating, B. signalgrass",surinam grass; [14],0
same,Nutsedge plant response rating,purple nutsedge; [5],0
same,Nutsedge plant response rating,purple nutsedge; [6],0
same,Nutsedge plant response rating,purple nutsedge; [7],0
same,Nutsedge plant response rating (0 to 10 scale),purple nutsedge; [8],0
same,Nutsedge plant response rating,purple nutsedge; [9],0
same,Nutsedge plant response rating,purple nutsedge; [10],0
same,Nutsedge plant response rating,purple nutsedge; [11],0
same,"Plant response rating, Nutsedge",purple nutsedge; [12],0
same,Nutsedge plant response rating,purple nutsedge; [13],0
same,Velvetleaf plant response rating,velvetleaf; [5],0
same,Velvetleaf plant response rating,velvetleaf; [6],0
same,Velvetleaf plant response rating,velvetleaf; [7],0
same,Velvetleaf plant response rating (0 to 10 scale),velvetleaf; [8],0
same,Velvetleaf plant response rating,velvetleaf; [9],0
same,Velvetleaf plant response rating,velvetleaf; [10],0
same,Velvetleaf plant response rating,velvetleaf; [11],0
same,"Plant response rating, Velvetleaf",velvetleaf; [12],0
same,Velvetleaf plant response rating,velvetleaf; [13],0
same,"Plant response rating, Velvetleaf",velvetleaf; [14],0
same,Ducksalad plant response rating,duck salad; [1],0
same,Ducksalad plant response rating,duck salad; [2],0
same,"Plant response rating, Ducksalad",duck salad; [3],0
same,Ducksalad plant response rating,duck salad; [4],0
